Source: patent publication US20070243244A1 (priority 2005, published 2007)
Like-named read-outs stand apart in the source and are kept apart here.

Experiments:
solubility in water = type: physicochemical; conditions: over the entire pH range of 1 to 14
[1] = oral bioavailability of encapsulated microparticulate (100 mg) enteric coated formulation (Example 3); set-up: species or system cynomolgus monkeys; conditions: cynomolgus monkey, in vivo
Experimental: Each 100 mg capsule contained 478.5 mg enteric coated granules. […] The monkeys were housed in Bioresources vivarium with free access to water and food. The four monkeys received the oral formulation described above (1×100 mg multi-particulate capsule). The formulation was administered with 10 mL water. All monkeys were fasted overnight prior to dosing (with free access to water) and were fed 4 hours after dose administration. […] Approximately 3 mL of blood were drawn into Vacutainer® tubes containing sodium heparin as the anticoagulant. Plasma was separated in a refrigerated centrifuge and stored at -70° C. Plasma samples were delivered to the assay site packed on dry ice.

[2] = systemic clearance in dogs; conditions: dog, in vivo, after a single 5 mg/kg dose, read-out: systemic clearance (ClT) in dogs (converted)
[3] = pharmacokinetics after single oral (gavage) and intravenous dose in 0.9% saline (Example 2); set-up: species or system cynomolgus monkeys; conditions: male, cynomolgus monkey, in vivo; for Vd: Vdss
Experimental: Four male cynomolgus monkeys were used in the study. […] The dosing volume was 10 mL/kg.
By using 0.2 mL of monkey plasma sample, the assay limit of quantitation (LOQ) was 100 ng/mL and the curve range was between 100 and 6400 ng/mL.
AUC0-4 was calculated by AUC0-t+Ct/λ, where AUC0-t was the AUC from time 0 to t, the last quantifiable time point and Ct was the last quantifiable concentration. […] Systemic clearance (CLT) after the iv dose was calculated using the formula of Dose/AUC0-4.

[4] = cell monolayer permeability studies; type: in vitro ADME; conditions: 1 mM in ethanol and buffer, pH 6 to 6.4
[5] = iv, 5 mg/kg, Plasma Concentrations
[6] = po, 15 mg/kg, Plasma Concentrations
[7] = po, 15 mg/kg, Plasma Concentrations, Mean
[8] = cynomolgus, iv, 5 mg/kg, Plasma Concentrations
[9] = cynomolgus, iv, 5 mg/kg, Plasma Concentrations, Mean

Q: Which results are given for `CN(C)c1cc(NC(=O)CNC(C)(C)C)c(O)c2c1C[C@H]1C[C@H]3[C@H](N(C)C)C(O)=C(C(N)=O)C(=O)[C@@]3(O)C(O)=C1C2=O` [Tigecycline]?
A: solubility (solubility in water): > 295 mg/mL; concentration at 1 hr ([1]; fasted male cynomolgus monkeys, single oral dose 100 mg encapsulated microparticulate capsule, 1 hr, individual animals, read-out: Plasma Concentrations): 113 ng/mL; concentration at 3 hr ([1]; fasted male cynomolgus monkeys, single oral dose 100 mg encapsulated microparticulate capsule, 3 hr, individual animals, read-out: Plasma Concentrations): 174 ng/mL; concentration at 4 hr ([1]; fasted male cynomolgus monkeys, single oral dose 100 mg encapsulated microparticulate capsule, 4 hr, individual animals, read-out: Plasma Concentrations): 113 ng/mL; AUC/Dose, Mean ([1]; male): 174; Cmax/Dose, Mean ([1]; male): 14.0; AUC/Dose ([1]; male, po, 16 mg/kg): 174; Cmax/Dose ([1]; male, po, 16 mg/kg): 14.0; AUC ([1]; male, po, 16 mg/kg, AUC0/t or 0-∞): 2830 ng·h/mL; bioavailability ([1]; male, po, 16 mg/kg, Bioavailability): 4.8%; Cmax ([1]; male, po, 16 mg/kg): 225 ng/mL; bioavailability ([1]; male, po, 16 mg/kg, absolute bioavailability of tigecycline in the blood): 5%; half-life ([1]; male, po, 16 mg/kg, t1/2): 12.1 h; Tmax ([1]; male, po, 16 mg/kg, tmax): 2.25 h; Tmax ([1]; male, po, 100 mg): 3.0 h; AUC(0-inf) ([1]; male, po, 100 mg, AUC0-∞, Mean): 2830 ng·h/mL; AUC ([1]; male, po, 100 mg, AUC0/24, Mean): 2130 ng·h/mL; Cmax ([1]; male, po, 100 mg, Mean): 225 ng/mL; half-life ([1]; male, po, 100 mg, T1/2): 9.48 h; half-life ([1]; male, po, 100 mg, T1/2, Mean): 12.1 h; Tmax ([1]; male, po, 100 mg, Tmax): 2 h; Tmax ([1]; male, po, 100 mg, Tmax, Mean): 2.25 h; clearance [2]: ~4.33 mL/min/kg; AUC ([3]; 15 mg/kg): 18300 ng·h/mL; Cmax ([3]; 15 mg/kg, Cmax): 15100 ng/mL; half-life ([3]; 15 mg/kg, t1/2): 14.1 h; AUC(0-t) ([3]; iv, 5 mg/kg): 18200 ng·h/mL; ClT, Mean ([3]; iv, 5 mg/kg): 4.67 mL/min/kg; MRTiv, Mean ([3]; iv, 5 mg/kg): 12.8 h; Plasma Concentrations ([3]; iv, 5 mg/kg, 0 hr): <100 ng/mL; concentration at 0 hr [3, 5]: < 100 ng/mL; concentration at 0.5 hr [3, 5]: 3340 ng/mL; concentration at 1 hr [3, 5]: 1660 ng/mL; concentration at 12 hr [3, 5]: 265 ng/mL; concentration at 24 hr [3, 5]: 155 ng/mL; concentration at 32 hr [3, 5]: < 100 ng/mL; concentration at 48 hr [3, 5]: < 100 ng/mL; Vd ([3]; iv, 5 mg/kg, Mean): 3.47 L/kg; half-life ([3]; iv, 5 mg/kg, t1/2): 11.4 to 19.1 h; half-life ([3]; iv, 5 mg/kg, t1/2, Mean): 14.1 h; AUC ([3]; po, 15 mg/kg): 163 ng·h/mL; detected in samples up to (time post-dose) ([3]; po, 15 mg/kg): up to 2 hours; Plasma Concentrations ([3]; po, 15 mg/kg, 0 h): <100 ng/mL; Plasma Concentrations ([3]; po, 15 mg/kg, 4 hr): <100 ng/mL; Plasma Concentrations ([3]; po, 15 mg/kg, 6 hr): <100 ng/mL; Plasma Concentrations ([3]; po, 15 mg/kg, 8 hr): <100 ng/mL; Plasma Concentrations ([3]; po, 15 mg/kg, 12 hr): <100 ng/mL; Plasma Concentrations ([3]; po, 15 mg/kg, 24 h): <100 ng/mL; Plasma Concentrations ([3]; po, 15 mg/kg, 32 h): <100 ng/mL; Plasma Concentrations ([3]; po, 15 mg/kg, 48 h): <100 ng/mL; AUC(0-t) ([3]; po, 15 mg/kg, AUC0-t, Mean): 163 ng·h/mL; Cmax ([3]; po, 15 mg/kg, Cmax): 163 ng/mL; concentration at 0 h [3, 6]: < 100 ng/mL; concentration at 0.5 h [3, 6]: < 100 ng/mL; concentration at 1 hr [3, 6]: 114 ng/mL; concentration at 2 hr [3, 6]: 131 ng/mL; concentration at 4 hr [3, 6]: < 100 ng/mL; concentration at 6 hr [3, 6]: < 100 ng/mL; concentration at 8 hr [3, 6]: < 100 ng/mL; concentration at 12 hr [3, 6]: < 100 ng/mL; concentration at 24 h [3, 6]: < 100 ng/mL; concentration at 32 h [3, 6]: < 100 ng/mL; concentration at 48 h [3, 6]: < 100 ng/mL; concentration at 0 h [3, 7]: 0 ng/mL; concentration at 0.5 h [3, 7]: 55.5 ng/mL; concentration at 1 h [3, 7]: 131 ng/mL; concentration at 2 h [3, 7]: 118 ng/mL; concentration at 4 h [3, 7]: 0 ng/mL; concentration at 6 h [3, 7]: 0 ng/mL; concentration at 8 h [3, 7]: 0 ng/mL; concentration at 12 h [3, 7]: 0 ng/mL; concentration at 24 h [3, 7]: 0 ng/mL; concentration at 32 h [3, 7]: 0 ng/mL; concentration at 48 h [3, 7]: 0 ng/mL; Tmax ([3]; po, 15 mg/kg, tmax): 1.8 h; Tmax ([3]; po, 15 mg/kg, tmax, Mean): 1.8 h; concentration at 2 hr ([3]; monkeys, single oral (gavage) dose of 15 mg/kg, 2 hr, individual animals, read-out: Plasma Concentrations): 191 ng/mL; Cmax ([3]; cynomolgus, iv, 5 mg/kg, Cmax, Mean): 15100 ng/mL; AUC(0-t) ([3]; cynomolgus, iv, 5 mg/kg, Mean): 18300 ± 3030 ng·h/mL; concentration at 2 hr [3, 8]: 1010 ng/mL; concentration at 4 hr [3, 8]: 588 ng/mL; concentration at 6 hr [3, 8]: 431 ng/mL; concentration at 8 hr [3, 8]: 372 ng/mL; concentration at 0 hr [3, 9]: 0 ng/mL; concentration at 0.083 hr [3, 9]: 15100 ng/mL; concentration at 0.5 hr [3, 9]: 2250 ng/mL; concentration at 1 hr [3, 9]: 1400 ng/mL; concentration at 2 hr [3, 9]: 1090 ng/mL; concentration at 4 hr [3, 9]: 697 ng/mL; concentration at 6 hr [3, 9]: 499 ng/mL; concentration at 8 hr [3, 9]: 392 ng/mL; concentration at 12 hr [3, 9]: 264 ng/mL; concentration at 24 hr [3, 9]: 162 ng/mL; concentration at 32 hr [3, 9]: 31.8 ng/mL; concentration at 48 hr [3, 9]: 27 ng/mL; Vd ([3]; cynomolgus, iv, 5 mg/kg, Mean): 3.47 ± 1.09 L/kg; half-life ([3]; cynomolgus, iv, 5 mg/kg, t1/2): 12.8 h; half-life ([3]; cynomolgus, iv, 5 mg/kg, t1/2, Mean): 14.1 ± 3.4 h; Tmax ([3]; cynomolgus, po, 15 mg/kg): 1.0 h; Cmax ([3]; cynomolgus, po, 15 mg/kg, Cmax): 178 ng/mL; Cmax ([3]; cynomolgus, po, 15 mg/kg, Cmax, Mean): 163 ± 27.1 ng/mL; Tmax ([3]; cynomolgus, po, 15 mg/kg, tmax): 1 to 2 h; Cmax ([3]; cynomolgus, monkeys, single oral (gavage) dose of 15 mg/kg, individual animals, read-out: Cmax): 191 ng/mL; Papp at 1 mM [4]: 0.04 ×10⁻⁶ cm/s
